Source: US7935687B2, “Methods for treating spinal muscular atrophy using tetracycline compounds” (Paratek Pharmaceuticals, Inc., priority 2007, dated 2011)

What was measured:
[1] = test system: SMN2 mRNA; experiment: In vitro cell-free splicing assay for inclusion of exon 7; assay type: biochemical; settings: HeLa cell nuclear extract, 30° C., 3 hours
Description: The following example illustrates how tetracycline compound of the invention are active in an in vitro cell-free assay for the inclusion of exon 7 in […] mRNA. SMN1 and SMN2 pre-mRNA were prepared by in vitro transcription using T7 RNA polymerase of minigene templates that include exon 6, a truncated portion of intron 6, exon 7, intron 7 and a portion of exon 8 in the presence of ^32P-UTP. Labeled RNA was purified on a denaturing polyacrylamide gel followed by phenol extraction and ethanol precipitation of the RNA.
In vitro cell-free splicing of SMN1 and SMN2 transcripts was carried out in a 10 μl reaction volume at 30° C. for 3 hours. The reactions contained 10 fmol of labeled pre-mRNA, 30% (3 VI) HeLa cell nuclear extract (in 20 mM HEPES, pH 7.4, 20% (v/v) glycerol, 0.1M KC1, 0.2 mM EDTA), 1.3% (w/v) polyvinyl alcohol, 1.56 mM MgCl2, 32 mM HEPES, pH 7.4, 0.5 mM ATP, 20 mM creatine phosphate and either 2 μl of test compound (in 20 mM HEPES, pH 7.4, 0.1M KC1, 0.2 mM EDTA) or buffer alone. Following incubation, 200 μl of a solution containing 0.3M NaAc and 0.2% SDS was added to the reaction. Proteins were removed by extraction with an equal volume of phenol and RNA was precipitated with 2.5 volumes of ethanol. RNA was resuspended in formamide sample buffer and separated on a 9% urea-denaturing polyacrylamide gel. Quantitation of splicing was based on phosphorimage analysis (Fujix BAS2000 or Fujifilm FLA-5100). In this assay, percentage exon 7 inclusion averages 12% for the unmutated SMN1 mRNA and 4% for the SMN2 mRNA.
The in vitro activities for exon 7 splicing are expressed as the Emax (the maximum percentage exon 7 inclusion observed) and Cmax (the lowest compound concentration at which the maximum inclusion occurs in μM). For Emax, percentage inclusion values of less than 10% are indicated by “*”, values of 10-20% are indicated by “**”, and values greater than 20% are indicated by “***”. For Cmax data, concentrations of greater than 40 μM are indicated by “*”, concentrations between 40 and 10 μM are represented by “**” and concentrations of less than 10 μM are represented by “***”.

[2] = test system: S. aureus (SA RN450); experiment: Antibacterial MIC, gram positive; assay type: cell-based; settings: CLSI methodology, 35° C., 18-24 hours
[3] = test system: E. coli (EC D1-209); experiment: Antibacterial MIC, gram negative; assay type: cell-based; settings: CLSI methodology, 35° C., 18-24 hours

SMILES	Cmax (lowest compound concentration at which the maximum exon 7 inclusion occurs) [1]	Emax (maximum percentage exon 7 inclusion observed) [1]	MIC Gram Positive (SA RN450) [2]	MIC Gram Negative (EC D1-209) [3]	MIC ([2]; Staphylococcus aureus)	MIC ([3]; Escherichia coli)
CN(C)C1C(O)=C(C(N)=O)C(=O)C2(O)C(O)=C3C(=O)c4c(O)ccc(-c5ccc(CN6CCOCC6)o5)c4CC3CC12 (centres unmarked) [AX]	*** (concentrations of less than 10 μM)	** (values of 10-20%)	*** (Good antibacterial activity (e.g., less than about 4 μg/mL))	** (modest antibacterial activity (between about 4 and 8 μg/mL))		
CN(C)C1C(O)=C(C(N)=O)C(=O)C2(O)C(O)=C3C(=O)c4c(O)ccc(-c5ccc(NC(=O)CNC(C)(C)C)cc5)c4CC3CC12 (centres unmarked) [AF]	*** (concentrations of less than 10 μM)	* (percentage inclusion values of less than 10%)	*** (Good antibacterial activity (e.g., less than about 4 μg/mL))	*** (Good antibacterial activity (e.g., less than about 4 μg/mL))		
CN(C)CCCNC(=O)c1cccc(-c2ccc(O)c3c2CC2CC4C(N(C)C)C(O)=C(C(N)=O)C(=O)C4(O)C(O)=C2C3=O)c1 (centres unmarked) [P]	** (concentrations between 40 and 10 μM)	** (values of 10-20%)	** (modest antibacterial activity (between about 4 and 8 μg/mL))	* (weak antibacterial activity (greater than about 8 μg/mL))		
CN(C)CCNC(=O)c1cccc(-c2ccc(O)c3c2CC2CC4C(N(C)C)C(O)=C(C(N)=O)C(=O)C4(O)C(O)=C2C3=O)c1 (centres unmarked) [Compound A]	** (concentrations between 40 and 10 μM)	** (values of 10-20%)	*** (Good antibacterial activity (e.g., less than about 4 μg/mL))	* (weak antibacterial activity (greater than about 8 μg/mL))		
CNCCNC(=O)c1cccc(-c2ccc(O)c3c2CC2CC4C(N(C)C)C(O)=C(C(N)=O)C(=O)C4(O)C(O)=C2C3=O)c1 (centres unmarked) [M]	** (concentrations between 40 and 10 μM)	*** (values greater than 20%)	** (modest antibacterial activity (between about 4 and 8 μg/mL))	* (weak antibacterial activity (greater than about 8 μg/mL))		
COC(=O)C1CCN(Cc2ccc(O)c3c2CC2CC4C(N(C)C)C(O)=C(C(N)=O)C(=O)C4(O)C(O)=C2C3=O)CC1 (centres unmarked) [Compound AK]	** (concentrations between 40 and 10 μM)	* (percentage inclusion values of less than 10%)	*** (Good antibacterial activity (e.g., less than about 4 μg/mL))	** (modest antibacterial activity (between about 4 and 8 μg/mL))		
CC(C)N1CCN(CC(=O)c2ccc(O)c3c2CC2CC4C(N(C)C)C(O)=C(C(N)=O)C(=O)C4(O)C(O)=C2C3=O)CC1 (centres unmarked) [BX]	* (concentrations of greater than 40 μM)	* (percentage inclusion values of less than 10%)	*** (Good antibacterial activity (e.g., less than about 4 μg/mL))	* (weak antibacterial activity (greater than about 8 μg/mL))		
CN(C)C1C(O)=C(C(N)=O)C(=O)C2(O)C(O)=C3C(=O)c4c(O)ccc(C(=O)CNCc5cccn5C)c4CC3CC12 (centres unmarked) [CE]	*** (concentrations of less than 10 μM)	** (values of 10-20%)	*** (Good antibacterial activity (e.g., less than about 4 μg/mL))	* (weak antibacterial activity (greater than about 8 μg/mL))		
CN(C)C1C(O)=C(C(N)=O)C(=O)C2(O)C(O)=C3C(=O)c4c(O)ccc(-c5cccc(C(=O)NCCO)c5)c4CC3CC12 (centres unmarked) [CK]	** (concentrations between 40 and 10 μM)	** (values of 10-20%)	*** (Good antibacterial activity (e.g., less than about 4 μg/mL))	* (weak antibacterial activity (greater than about 8 μg/mL))		
CC(C)N(CCNC(=O)c1cccc(-c2ccc(O)c3c2CC2CC4C(N(C)C)C(O)=C(C(N)=O)C(=O)C4(O)C(O)=C2C3=O)c1)C(C)C (centres unmarked) [T]	** (concentrations between 40 and 10 μM)	** (values of 10-20%)	*** (Good antibacterial activity (e.g., less than about 4 μg/mL))	* (weak antibacterial activity (greater than about 8 μg/mL))		
CC(=O)N1CCN(CC(=O)c2ccc(O)c3c2CC2CC4C(N(C)C)C(O)=C(C(N)=O)C(=O)C4(O)C(O)=C2C3=O)CC1 (centres unmarked) [BS]	* (concentrations of greater than 40 μM)	** (values of 10-20%)	*** (Good antibacterial activity (e.g., less than about 4 μg/mL))	* (weak antibacterial activity (greater than about 8 μg/mL))		
CC(=O)NCCC(=O)c1ccc(O)c2c1CC1CC3C(N(C)C)C(O)=C(C(N)=O)C(=O)C3(O)C(O)=C1C2=O (centres unmarked) [CI]	* (concentrations of greater than 40 μM)	** (values of 10-20%)	*** (Good antibacterial activity (e.g., less than about 4 μg/mL))	* (weak antibacterial activity (greater than about 8 μg/mL))		
COCCNCc1ccoc1-c1ccc(O)c2c1CC1CC3C(N(C)C)C(O)=C(C(N)=O)C(=O)C3(O)C(O)=C1C2=O (centres unmarked) [BQ]	*** (concentrations of less than 10 μM)	** (values of 10-20%)	*** (Good antibacterial activity (e.g., less than about 4 μg/mL))	* (weak antibacterial activity (greater than about 8 μg/mL))		
CC(=O)NCCNC(=O)c1cccc(-c2ccc(O)c3c2CC2CC4C(N(C)C)C(O)=C(C(N)=O)C(=O)C4(O)C(O)=C2C3=O)c1 (centres unmarked) [S]	* (concentrations of greater than 40 μM)	** (values of 10-20%)	*** (Good antibacterial activity (e.g., less than about 4 μg/mL))	* (weak antibacterial activity (greater than about 8 μg/mL))		
CN(C)C1C(O)=C(C(N)=O)C(=O)C2(O)C(O)=C3C(=O)c4c(O)ccc(C(=O)CNCc5ccco5)c4CC3CC12 (centres unmarked) [CC]	*** (concentrations of less than 10 μM)	** (values of 10-20%)	** (modest antibacterial activity (between about 4 and 8 μg/mL))	* (weak antibacterial activity (greater than about 8 μg/mL))		
COCCNCC(=O)c1ccc(O)c2c1CC1CC3C(N(C)C)C(O)=C(C(N)=O)C(=O)C3(O)C(O)=C1C2=O (centres unmarked) [AG]	** (concentrations between 40 and 10 μM)	* (percentage inclusion values of less than 10%)	** (modest antibacterial activity (between about 4 and 8 μg/mL))	* (weak antibacterial activity (greater than about 8 μg/mL))		
CN(C)CC(=O)Nc1cccc(-c2ccc(O)c3c2C[C@H]2C[C@H]4[C@H](N(C)C)C(O)=C(C(N)=O)C(=O)[C@@]4(O)C(O)=C2C3=O)c1 [Compound K, (4S,4aS,5aR,12aS)-4-Dimethylamino-7-[3-(2-dimethylamino-acetylamino)-phenyl]-3,10,12,12a-tetrahydroxy-1,11-dioxo-1,4,4a,5,5a,6,11,12a-octahydro-naphthacene-2-carboxylic Acid Amide]	* (concentrations of greater than 40 μM)	* (percentage inclusion values of less than 10%)			< 4 µg/mL	> 8 µg/mL
